Consider 2 compounds from US7157442B2, “Antibacterial compound” (Sankyo Company, Limited, priority 1999, dated 2007).

≈ marks a conversion by molar mass, not a printed value.

The test system of this assay is M. tuberculosis No. 74. The assay can be described thus: In vitro antibacterial activity (2): MIC by broth dilution method. Type of assay: cell-based, Mycobacterium tuberculosis. The conditions noted are these: rifampicin-resistant strain; for MIC: Mycobacterium tuberculosis, NO.74, Middlebrook 7H9 broth, 35° C. for 10–21 days, read-out: MICs against Mycobacterium tuberculosis, M. tuberculosis No. 74. (In general: In broth dilution the organism is exposed to a series of concentrations in liquid medium.)

As for `CO[C@H]1[C@@H](O)[C@H](n2ccc(=O)[nH]c2=O)O[C@@H]1[C@@H](O[C@H]1OC(C(=O)Nc2ccc(F)c(F)c2)=C[C@H](O)[C@@H]1O)C(N)=O` [Exemplification Compound No. 3712], the MIC amounted to 8 µg/mL (≈ 14 µM) and the “antibacterial activity against M. tuberculosis No. 74 (in words)” value is given as “excellent antibacterial activity”.
Turning to `CO[C@H]1/C=C/O[C@@]2(C)Oc3c(C)c(O)c4c(O)c(c(/C=N/N5CCN(C)CC5)c(O)c4c3C2=O)NC(=O)/C(C)=C\C=C\[C@H](C)[C@H](O)[C@@H](C)[C@@H](O)[C@@H](C)[C@H](OC(C)=O)[C@@H]1C` [rifampicin, reference compound], the MIC came out at 128 µg/mL (≈ 156 µM).
